Results from patent publication US20240294881A1, “CELL CULTURE SUPPLEMENT FOR PRODUCING STEM CELLS, AND METHOD FOR PRODUCING STEM CELLS” (OPTICELL, INC, priority 2021, published 2024).

Experiments:
Type in all cases: cell-based
[1] = test system: healthy human adult mammary gland epithelial cells; assay: Real-time PCR of stem cell and three germ layer marker genes in mammary gland epithelial cell spheroids
Procedure: The analysis of expression of gene mRNA was performed by real-time PCR.
Specifically, on day 20 from the start of culture, spheroids were collected in a 15-mL centrifuge tube and centrifuged, and then washed with phosphate buffered saline (−) and collected. Two-dimensionally cultured cells in the culture vessel that was not coated with the cell culture supplement (control) (day 0) were washed with PBS (−) after removal of the medium, and the cells were detached from the plate with 0.05% trypsin-EGTA and dissociated, followed by collecting the cells in a 15-mL centrifuge tube and washing with PBS (−) again. A NucleoZOL reagent (Macherey-Nagel) was added to the spheroids, and RNA extracted according to the protocol recommended by the reagent manufacturer was determined to be template RNA. For real-time PCR analysis, PCR probes from QuantiFast Probe RT-PCR Kits (QIAGEN; No. 204454) and TagMan Gene Expression Assay Probe (Thermo Fisher Scientific) were used. PCR analysis was performed with a Rotor-Gene Q (QIAGEN) apparatus. The genes targeted for detection were the following three transcription factors: SOX2 (sex-determining region Y-box 2), OCT4 (octamer binding transcription factor 4), and NANOG (homeodomain transcription factor) as the probes for detecting the expression of undifferentiated stem cell marker genes; and β-actin was used as an endogenous control gene (FIG. 16).
For probes for detection of genes associated with primordial three germ layers, the following three triploblastic marker genes were used: SOX17 (sex-determining region Y-box 17; endoderm), GATA6 (GATA family of zinc finger transcription factors; mesoderm), and MAP2 (microtubule associated protein 2: ectoderm). For an endogenous control gene, TaqMan Gene Expression Assay Probe of ß-actin was used (FIG. 17).
In the gene expression analysis, relative quantification was performed according to the ΔΔCt method (Delta Delta Ct method). The results of analysis according to the ΔΔCt method show the amount of a gene expressed by control cells under the conditions of “no cell culture supplement, flat-bottom 2D growth, day 0” as “1.0” in relative terms, and the increase rate in “the expression level in spheroid proliferation on day 20” was determined by comparison.

[2] = test system: healthy human neonatal fibroblasts; assay: Real-time PCR of undifferentiated stem cell and three germ layer marker genes in neonatal fibroblast spheroids (96-well round-bottom); settings: day 20 of 3D spheroid culture, coated 96-well round-bottom; 2D control without supplement day 0 = 1.0; ΔΔCt
Procedure: To observe the spheroid formation and stem cell induction in healthy human neonatal fibroblasts over time, culture was performed by using a 96-well round-bottom culture vessel. An aqueous solution of the polypeptide represented by formula (1) (0.125%) (cell culture supplement) was added to a commercial polystyrene-made 96-well round-bottom culture vessel (Nunclon Delta 96U Bottom, Thermo Fisher Scientific) at 100 μL/well and allowed to stand at 4° C. for 24 hours. Thereafter, the excess cell culture supplement was removed, and the remaining solution was dried in a dryer at 37° C. for 96 hours to complete coating treatment with the cell culture supplement. Fibroblasts were maintained and cultured in a serum-free medium (Promo Cell; fibroblast basal medium, basic-FGF 5 ng/ml and insulin 2.5 μg/mL). The fibroblasts floating in the medium were seeded in the culture vessel coated with the cell culture supplement at 4×10^4 cells/well/100 μL and cultured at 37° C. under 5% CO2 conditions.
To investigate the expression mechanism of the undifferentiated stem cell marker genes found in Example 1 over time, real-time PCR analysis was performed by using the following three transcription factors: SOX2 (sex-determining region Y-box 2), OCT4 (octamer binding transcription factor 4), and NANOG (homeodomain transcription factor), and a TaqMan gene expression assay probe (B-actin) as an endogenous control gene. In the expression analysis, relative quantification was performed according to the ΔΔCt method (Delta Delta Ct method) (FIG. 8).
To determine whether stem cells induced from fibroblasts have a differentiation-inducing ability, analysis was conducted on the expression of genes associated with the three germ layers that indicate the early stages of differentiation. Fibroblasts were cultured in the same type of a 96-well culture vessel treated with the cell culture supplement as above according to the same method. Real-time PCR analysis was performed by using the following expression detection probes for the genes associated with differentiation into the three germ layers: SOX17 (sex-determining region Y-box 17; endoderm), HAND1 (Heart-and neural crest derivatives-expressed protein-1; mesoderm), and MAP2 (microtubule associated protein 2: ectoderm), and a TaqMan gene expression assay probe (ß-actin) as the endogenous control gene. In the expression analysis, relative quantification was performed according to the ΔΔCt method (Delta Delta Ct method) (FIG. 9).

[3] = test system: canine tubule-derived MDCK II cells; assay: Inhibition of induction of apoptosis, Caspase-3/7 activity assay in spheroids; settings: U- and V-bottom 96-well plates coated with 0.5% solution diluted 4-fold and 8-fold; day 3 and day 6; concentration-dependent, more pronounced on day 6
Procedure: An aqueous solution of the polypeptide represented by formula (1) was added in two different concentrations (prepared by diluting a 0.5% solution 4-fold and 8-fold) at 100 μL/well and 200 μL/well respectively to two 96-well cell culture plates with different bottom shapes (plate #163320 with a U-shaped bottom; Corning, NY, USA, and plate #277143 with a V-shaped bottom; Thermo Fisher Scientific, MA, USA) and allowed to stand overnight at 4° C. Thereafter, the excess cell culture supplement was removed, and the remaining solution was dried in a clean bench for about 6 hours to complete the treatment with the cell culture supplement. […] After three days and six days, the apoptosis activity per well was measured by using a Caspase activity assay kit (Apo-ONE Homogeneous Caspase-3/7 Assay kit; Promega, WI, USA). […] Thereafter, 100 μL of the culture fluid was transferred to a black 96-well cell culture plate (#237105; Thermo Fisher Scientific, MA, USA), and the value of fluorescence at 590 nm (excitation light at 560 nm) was measured with a plate reader. The value determined by subtracting the value for reagent-only with no cells (blank value) from a measured value was considered to be the measured value for each day of culture, and the values compared to those of the plate not coated with the aqueous solution of the polypeptide represented by formula (1) (control) were plotted.

[4] = day 20 of 3D spheroid culture, coated 96-well, 2D adhesion control without supplement = 1.0, ΔΔCt
[5] = day 20 of 3D spheroid culture, 2D control without supplement day 0 = 1.0, ΔΔCt
[6] = spheroids cultured for 20 days (FIG. 17 legend)

In the case of “(Pro-Hyp-Gly)n [cell culture supplement]”, the “GATA6 (mesoderm marker) gene expression” value ([1]; day 20 of 3D spheroid culture) is reported as “no gene expression of GATA6 (mesoderm marker) was detected”, the “NANOG gene expression level (increase vs control)” value [1, 4] is reported as 28.7 fold and the “OCT4 gene expression level (increase vs control)” value [1, 4] is reported as 1.5 fold. For the same substance, the “SOX2 gene expression level (increase vs control)” value [1, 4] was 24.0 fold, the “MAP2 gene expression level (increase vs control)” value [1, 5] was 2.7 fold and the “SOX17 gene expression level (increase vs control)” value [1, 5] was 124.7 fold. For the same substance, the “FOXA2 (endoderm) mRNA expression level” value [1, 6] was “decreased”, the “GATA4 (mesoderm) mRNA expression” value [1, 6] was “undetectable” and the “HAND1 (mesoderm) gene expression level (increase vs control)” value [2] was 4.6 fold. The “MAP2 (ectoderm) gene expression level (increase vs control)” value [2] was 24.2 fold, the “NANOG gene expression level (increase vs control)” value [2] was 35.4 fold and the “OCT4 gene expression level (increase vs control)” value [2] was 30.1 fold. The “SOX2 gene expression level (increase vs control)” value [2] was 144.0 fold, the “SOX17 (endoderm) gene expression level (increase vs control)” value [2] was 359.6 fold and the “apoptosis (Caspase-3/7 activity) compared with uncoated plate” value [3] was “inhibited”.
